# Measurements taken from patent US20250270512A1, “ADDITIVE FOR UNDIFFERENTIATION MAINTAINING MEDIUM” (AJINOMOTO CO., INC., priority 2017, published 2025).
# “Also recorded” adds a separate entry of the source.
# Key:
# Type in all cases: cell-based
# [1] = system: human induced pluripotent stem cells 201B7; assay: Proliferation promoting effect of L-tryptophan metabolites in mTeSR1, cell coating rate by IncuCyte, 201B7; settings: mTeSR1 medium, final 50, 100, 200, 500, 1000 μM, 0-120 hr
# Procedure: L-kynurenine (Sigma-Aldrich Co. LLC: […]) was added at a final concentration of 50, 100, 200, 500, 1000 μM to mTeSR1 medium and the proliferation promoting effect was examined using the prepared medium. Y-27632 was added at a final concentration of 10 μM for 2 days after seeding. As a basement membrane matrix, Matrigel (Japan Becton, Dickinson and Company) was applied on a 6 well plate and 20,000 cells were single cell seeded per well. Two days after the cell seeding, evaluation was performed using the medium free of Y-27632 and prepared as mentioned above. The time of L-kynurenine addition was taken as 0 and the cell coating rate was measured using IncuCyte at 0, 24, 48, 72, 96 and 120 hr later. […] Kynurenic acid (Sigma-Aldrich Co. LLC: […]) was added at a final concentration of 50, 100, 200, 500, 1000 μM to mTeSR1 medium and the proliferation promoting effect was examined using the prepared medium. Y-27632 was added at a final concentration of 10 μM for 2 days after seeding. As a basement membrane matrix, Matrigel (Japan Becton, Dickinson and Company) was applied on a 6 well plate and 20,000 cells were single cell seeded per well. […] The time of kynurenic acid addition was taken as 0 and the cell coating rate was measured using IncuCyte at 0, 24, 48, 72, 96 and 120 hr later.
# [2] = system: human induced pluripotent stem cells 253G4; assay: Proliferation promoting effect of L-tryptophan, cell coating rate by IncuCyte, 253G4; settings: mTeSR1 medium, final 44-1408 μM, 24-120 hr
# Procedure: (§1) Then, the proliferation promoting effect of L-tryptophan was evaluated using other strain 253G4 of human induced pluripotent stem cell (iPS cell) and human embryonic stem cell H9 strain. As the medium, mTeSR1 (STEM CELL Technologies Inc.: 05850) was used and culturing was performed under 5% CO2/37° C. conditions.
# (§2) L-tryptophan (Sigma-Aldrich Co. LLC: T8941) was added to mTeSR1 medium (STEM CELL Technologies Inc.: 05850) at a given concentration, used for culture and the effect thereof was examined.
# (§3) L-tryptophan (Sigma-Aldrich Co. LLC: T8941) was added at a final concentration of 44, 176, 352, 704, 1408 μM to mTeSR1 medium and the proliferation promoting effect of L-tryptophan was examined using the prepared medium. A 6 well plate coated with Matrigel (Japan Becton, Dickinson and Company) as a basement membrane matrix was prepared and 40,000 253G4 cells and 10,000 H9 cells were single cell seeded per well. The next day of cell seeding, evaluation was performed by replacing the medium with the medium prepared as mentioned above. The culture period was set to 6 days, the time of L-tryptophan addition was set to 0 and the cell coating rate was measured using IncuCyte at 24, 48, 72, 96 and 120 hr later. As the medium to be used when seeding, a medium without addition of Y-27632 at a final concentration of 10 μM was used and culturing was performed.
# [3] = system: human induced pluripotent stem cells 201B7; assay: Proliferation promoting effect of L-tryptophan, cell coating rate by IncuCyte, 201B7; settings: final 44-1408 μM, 24-120 hr after addition
# Procedure: First, the proliferation promoting effect of L-tryptophan on induced pluripotent stem cells (iPS cells) was evaluated using 3 kinds of commercially available media. As the human iPS cell, 201B7 strain purchased from iPS Academia Japan, Inc. was used and cultured under the conditions of 5% CO2/37° C.
# L-tryptophan (Sigma-Aldrich Co. LLC: T8941) was added to the media of Essential-8 (Life Technologies Inc.: A1517001), mTeSR1 (STEM CELL Technologies Inc.: 05850), TeSR2 (STEM CELL Technologies Inc.: 05860) at a given concentration, used for culture and the effect thereof was examined.
# as §3, with “Essential-8, mTeSR1, TeSR2 media” for “mTeSR1 medium”, “media.” for “medium.”, “13,000” for “40,000 253G4 cells and 10,000 H9”, “using” for “by replacing the medium with”
# [4] = system: human embryonic kidney cell line HEK293T cells; assay: Proliferation promoting effect of L-tryptophan, cell coating rate by IncuCyte, HEK293T; settings: 293T; DMEM with 10% fetal bovine serum; final 44-1408 μM; 24-120 hr
# Procedure: Next, the proliferation promoting effect of L-tryptophan was evaluated using human embryonic kidney cell line HEK293T cells. As the medium, DMEM medium (Thermo Fisher Scientific K. K.: 11965) added with 10% fetal bovine serum was used and culturing was performed under 5% CO2/37° C. conditions.
# L-tryptophan (Sigma-Aldrich Co. LLC: T8941) was added at a given concentration to DMEM medium (Thermo Fisher Scientific K.K.: 11965) added with 10% fetal bovine serum, used for culture and the effect thereof was examined.
# L-tryptophan (Sigma-Aldrich Co. LLC: T8941) was added at a final concentration of 44, 176, 352, 704, 1408 μM to DMEM medium (Thermo Fisher Scientific K.K.: 11965) added with 10% fetal bovine serum and the proliferation promoting effect of L-tryptophan was examined using the prepared medium. A 6 well plate was prepared and 10,000 cells were single cell seeded per well. The next day of cell seeding, evaluation was performed by replacing the medium with the medium prepared as mentioned above. The culture period was set to 6 days, the time of L-tryptophan addition was set to 0 and the cell coating rate was measured using IncuCyte at 24, 48, 72, 96 and 120 hr later.
# [5] = system: human embryonic stem cells H9; assay: Proliferation promoting effect of L-tryptophan, cell coating rate by IncuCyte, H9; settings: mTeSR1 medium, final 44-1408 μM, 24-120 hr
# Procedure: as §1, §2, §3
# [6] = system: human iPS cell 201B7 strain; assay: Expression of undifferentiated marker after addition of high concentration of L-tryptophan; settings: data not shown
SMILES,cell coating rate (proliferation promoting effect) [1],cell coating rate (proliferation promoting effect) [2],cell coating rate (proliferation promoting effect) ([3]; Essential-8 medium),cell coating rate (proliferation promoting effect) ([3]; TeSR2 medium),cell coating rate (proliferation promoting effect) ([3]; mTeSR1 medium),cell coating rate (proliferation promoting effect) [4],cell coating rate (proliferation promoting effect) [5],"expression of undifferentiated marker (OCT, Nanog, alkaline phosphatase) [6]"
Nc1ccccc1C(=O)C[C@H](N)C(=O)O [L-kynurenine],showed a cell proliferation promoting effect in the L-kynurenine 50-500 μM addition group,–,–,–,–,–,–,–
"NC(Cc1c[nH]c2ccccc12)C(=O)O [L-tryptophan, 2-amino-3-(indolyl)propionic acid]",–,concentration-dependent proliferation promoting effect of L-tryptophan was also confirmed; also recorded: showed an L-tryptophan concentration-dependent effect of promoting proliferation,showed a proliferation promoting effect in an L-tryptophan concentration dependent manner; also recorded: showed an L-tryptophan concentration-dependent effect of promoting proliferation,showed a proliferation promoting effect in an L-tryptophan concentration dependent manner; also recorded: showed an L-tryptophan concentration-dependent effect of promoting proliferation,showed a proliferation promoting effect in an L-tryptophan concentration dependent manner; also recorded: showed an L-tryptophan concentration-dependent effect of promoting proliferation,concentration-dependent proliferation promoting effect of L-tryptophan was not confirmed; also recorded: did not show an L-tryptophan concentration-dependent effect of promoting proliferation,concentration-dependent proliferation promoting effect of L-tryptophan was also confirmed; also recorded: showed an L-tryptophan concentration-dependent effect of promoting proliferation,not influenced
O=C(O)c1cc(=O)c2ccccc2[nH]1 [kynurenic acid],showed a cell proliferation promoting effect in the kynurenic acid 50-500 μM addition group,–,–,–,–,–,–,–
